Data set [1] deals with Crabgrass(large) (Digitaria sanguinalis). As to the kind of experiment: Preemergence herbicidal activity, soil spray. The format is in vivo. The following applies: Table 5, visual score after 3 weeks. An excerpt:
(§1) Seeds of the desired test plant species were planted in a soil matrix prepared by mixing a loam soil (43 percent silt, 19 percent clay, and 38 percent sand, with a pH of about 8.1 and an organic matter content of about 1.5 percent) and sand in a 70 to 30 ratio. The soil matrix was contained in plastic pots with a surface area of 113 square centimeters. When required to ensure good germination and healthy plants, a fungicide treatment and/or other chemical or physical treatment was applied. A weighed amount, determined by the highest rate to be tested, of each test compound was placed in a 20 mL glass vial and was dissolved in 4 mL of a 97:3 v/v (volume/volume) mixture of acetone and dimethyl sulfoxide to obtain concentrated stock solutions. […] The stock solutions obtained were diluted with a 99.9:0.1 mixture of water and Tween® 155 surfactant to obtain application solutions of known concentration. The solutions containing the highest concentration to be tested were prepared by diluting 2 mL aliquots of the stock solution with 15 mL of the mixture and lower concentrations were prepared by serial dilution of the stock solution. A 2.5 mL aliquot of each solution of known concentration was sprayed evenly onto the soil surface (113 sq. cm) of each seeded pot using a Cornwall 5.0 mL glass syringe fitted with a TeeJet TN-3 hollow cone nozzle to obtain thorough coverage of the soil in each pot. Control pots were sprayed in the same manner with the aqueous mixture. The treated pots and control pots were placed in a greenhouse maintained with an approximate 15 hr photoperiod and temperatures of about 23-29° C. during the day and 22-28° C. during the night. Nutrients and water were added on a regular basis and supplemental lighting was provided with overhead metal halide 1000-Watt lamps as necessary. The water was added by top-irrigation.

In data set [2] the test system is Giant Foxtail (Setaria faberi). Description: Preemergence herbicidal activity, soil spray. Format: in vivo. The following applies: Table 5, visual score after 3 weeks.
Source text: as §1

The subject of data set [3] is Lambsquarter (Chenopodium album). Description: Preemergence herbicidal activity, soil spray. Format: in vivo. The following applies: Table 5, visual score after 3 weeks.
Source text: as §1

For data set [4], the system named is Pigweed (redroot) (Amaranthus retroflexus). As to the kind of experiment: Preemergence herbicidal activity, soil spray. The following applies: Table 5, visual score after 3 weeks. Format: in vivo.
Source text: as §1

For data set [5], the system named is Barnyardgrass (Echinochloa crus-galli). Description: Postemergence herbicidal activity, greenhouse spray. The format is in vivo. The following applies: Table 1, visual score after 2 weeks; for pest or weed control at 500 ppm / pest or weed control at 125 ppm: Echinochloa crus-galli, post-emergence, 336 h, read-out: Post-emergent % control ECHCG; for pest or weed control at 500 ppm: rate 500 ppm. The method, then: (§2) When required to ensure good germination and healthy plants, a fungicide treatment and/or other chemical or physical treatment was applied. The plants were grown for 7-21 days in a greenhouse with an approximate 15 hr photoperiod which was maintained at about 23-29° C. during the day and 22-28° C. during the night. Nutrients and water were added on a regular basis and supplemental lighting was provided with overhead metal halide 1000-Watt lamps as necessary. The plants were employed for testing when they reached the first or second true leaf stage. A weighed amount, determined by the highest rate to be tested, of each test compound was placed in a 20 mL glass vial and was dissolved in 4 mL of a 97:3 v/v (volume/volume) mixture of acetone and dimethyl sulfoxide (DMSO) to obtain concentrated stock solutions. […] The concentrated stock solutions obtained were diluted with an aqueous mixture containing acetone, water, isopropyl alcohol, DMSO, At plus 411 F crop oil concentrate, and Triton X-155 surfactant in a 48.5:39:10:1.5:1.0:0.02 v/v ratio to obtain spray solutions of known concentration. The solutions containing the highest concentration to be tested were prepared by diluting 2 mL aliquots of the stock solution with 13 mL of the mixture and lower concentrations were prepared by serial dilution of the stock solution. Approximately 1.5 mL aliquots of each solution of known concentration were sprayed evenly onto each of the test plant pots using a DeVilbiss atomizer driven by compressed air pressure of 2 to 4 psi (140 to 280 kiloPascals) to obtain thorough coverage of each plant. Control plants were sprayed in the same manner with the aqueous mixture. […] The treated plants and control plants were placed in a greenhouse as described above and watered by sub-irrigation to prevent wash-off of the test compounds.

For data set [6], the system named is Cocklebur (Xanthium strumarium). Described as above. The format is in vivo. The following applies: Table 1, visual score after 2 weeks; for pest or weed control at 500 ppm / pest or weed control at 125 ppm: Xanthium strumarium, post-emergence, 336 h, read-out: Post-emergent % control XANST; for pest or weed control at 500 ppm: rate 500 ppm, 0 no injury, 100 complete kill. How it is done: as §2

In data set [7] the test system is Lambsquarter (Chenopodium album). The description is as above. The following applies: Table 1, visual score after 2 weeks; for pest or weed control at 500 ppm / pest or weed control at 125 ppm: Chenopodium album, post-emergence, 336 h, read-out: Post-emergent % control CHEAL; for pest or weed control at 500 ppm: rate 500 ppm. Format: in vivo. How it is done:
as §2

Data set [8] relates to Yellow nutsedge (Cyperus esculentus). The description is as above. Format: in vivo. The following applies: Table 1, visual score after 2 weeks. How it is done: as §2
Where [9] appears, read: Digitaria sanguinalis, pre-emergence, 504 h, rate 560 ppm, read-out: Pre-emergent % control DIGSA.
[10] abbreviates: Setaria faberi, pre-emergence, 504 h, rate 560 ppm, read-out: Pre-emergent % control SETFA.
Setting [11] is: Chenopodium album, pre-emergence, 504 h, rate 560 ppm, 100 complete kill or no germination, read-out: Pre-emergent % control CHEAL.
Setting [12] is: Amaranthus retroflexus, pre-emergence, 504 h, rate 560 ppm, read-out: Pre-emergent % control AMARE.
Setting [13] is: rate 560 ppm, 100 complete kill or no germination.
The mark [14] stands for this setting: Cyperus, post-emergence, 336 h, rate 125 ppm, read-out: Post-emergent % control CYPES.
The mark [15] stands for this setting: Digitaria sanguinalis, pre-emergence, 504 h, rate 140 ppm, read-out: Pre-emergent % control DIGSA.
Where [16] appears, read: Setaria faberi, pre-emergence, 504 h, rate 140 ppm, read-out: Pre-emergent % control SETFA.
The mark [17] stands for this setting: Amaranthus retroflexus, pre-emergence, 504 h, rate 140 ppm, read-out: Pre-emergent % control AMARE.

In the case of `CCc1ccc(-c2cc(N)c(Cl)c(C(=O)OC)n2)cc1` [Compound 30, Methyl 4-amino-3-chloro-6-(4-ethylphenyl)pyridine-2-carboxylate], the melting point – broadly, the temperature of the solid-liquid transition – amounted to 119 °C. The pest or weed control at 560 ppm in [1] (setting [9]) was 100%. In addition, the pest or weed control at 560 ppm in data set [2] (setting [10]) is 70%. In addition, in [3] (setting [11]), the pest or weed control at 560 ppm amounted to 90%. In addition, the pest or weed control at 560 ppm in data set [4] (setting [12]) came to 100%.
Compound `COC(=O)c1nc(-c2ccc(Cl)cc2F)cc(N)c1Cl` [Compound 59, Methyl 4-amino-3-chloro-6-(4-chloro-2-fluorophenyl)pyridine-2-carboxylate] came in with a melting point of 107 to 109 °C. Besides, the pest or weed control at 500 ppm in data set [5] stood at 80%. The pest or weed control at 500 ppm in data set [6] was determined as 100%. In addition, the pest or weed control at 500 ppm in data set [7] was found to be 100%. Further, the pest or weed control at 280 ppm in [1] (Digitaria sanguinalis, pre-emergence, 504 h, rate 280 ppm, read-out: Pre-emergent % control DIGSA) is 100%. Also, the pest or weed control at 280 ppm in [2] (Setaria faberi, pre-emergence, 504 h, rate 280 ppm, read-out: Pre-emergent % control SETFA) stood at 100%. Besides, the pest or weed control at 280 ppm in [3] (Chenopodium album, pre-emergence, 504 h, rate 280 ppm, read-out: Pre-emergent % control CHEAL) turned out to be 100%. For the same compound, the pest or weed control at 280 ppm in [4] (Amaranthus retroflexus, pre-emergence, 504 h, rate 280 ppm, read-out: Pre-emergent % control AMARE) was 100%.
Regarding `COC(=O)c1nc(-c2ccc(C)cc2)cc(-n2cccc2)c1Cl` [Compound 89, Methyl 4-N-pyrolyl-3-chloro-6-(4-methylphenyl)pyridine-2-carboxylate], in data set [5] (rate 250 ppm), the “Post-emergent % control ECHCG” value is on record as 90%. The “Post-emergent % control XANST” value in data set [6] (rate 250 ppm) turned out to be 100%. Further, the “Post-emergent % control CHEAL” value in data set [7] (rate 250 ppm) is 100%. Also, the “Post-emergent % control CYPES” value in data set [8] (rate 250 ppm) is reported as 50%. Also, the “Pre-emergent % control DIGSA” value in data set [1] (rate 560 ppm) is listed as 90%. Besides, in data set [2] (rate 560 ppm), the “Pre-emergent % control SETFA” value is on record as 85%. Also, in data set [3] (setting [13]), the “Pre-emergent % control CHEAL” value came to 100%. Besides, in data set [4] (rate 560 ppm), the “Pre-emergent % control AMARE” value is reported as 100%.
On to `Nc1c(F)c(-c2ccc(C(F)(F)F)cc2)nc(C(=O)O)c1Cl` [Compound 172, 4-Amino-3-chloro-5-fluoro-6-(4-trifluorophenyl)pyridine-2-carboxylic acid], for which, in data set [5] (rate 125 ppm), the “Post-emergent % control ECHCG” value was 90%. Moreover, the “Post-emergent % control XANST” value in data set [6] (rate 125 ppm) stood at 100%. Also, in data set [7] (rate 125 ppm), the “Post-emergent % control CHEAL” value was found to be 90%. For the same compound, the “Post-emergent % control CYPES” value in data set [8] (rate 125 ppm) stood at 90%. Besides, the “Pre-emergent % control DIGSA” value in [1] (rate 140 ppm) came out at 95%. In addition, the “Pre-emergent % control SETFA” value in data set [2] (rate 140 ppm) is recorded as 90%. Besides, the “Pre-emergent % control CHEAL” value in [3] (rate 140 ppm) is listed as 90%. Besides, the “Pre-emergent % control AMARE” value in data set [4] (rate 140 ppm) came out at 95%.
For `Nc1c(F)c(-c2ccc(Cl)cc2)nc(C(=O)O)c1Cl` [Compound 173, 4-Amino-3-chloro-5-fluoro-6-(4-chlorophenyl)pyridine-2-carboxylic acid], the pest or weed control at 500 ppm was determined as 100% in data set [5]; 100% in data set [6]; 100% in data set [7]; 100% in data set [8] (Cyperus, post-emergence, 336 h, rate 500 ppm, read-out: Post-emergent % control CYPES). The pest or weed control at 560 ppm in data set [1] (setting [9]), in [2] (setting [10]), in [3] (setting [11]) and in data set [4] (setting [12]) was 100% in each case.
Compound `Nc1cc(-c2ccc(Cl)c(C(F)(F)F)c2)nc(C(=O)O)c1Cl` [Compound 179, 4-Amino-3-chloro-6-(4-chloro-3-(trifluoromethyl)phenyl)pyridine-2-carboxylic acid] had a melting point of 176 °C. Moreover, in data set [1] (setting [9]), the pest or weed control at 560 ppm stood at 98%. Besides, the pest or weed control at 560 ppm in data set [2] (setting [10]) turned out to be 98%. In addition, the pest or weed control at 560 ppm in [3] (setting [11]) was 100%. Besides, the pest or weed control at 560 ppm in data set [4] (setting [12]) was found to be 100%.
In the case of `Cc1ccc(-c2cc(-n3cccc3)c(Cl)c(C(=O)O)n2)cc1` [Compound 180, 3-chloro-6-(4-methylphenyl)-4-(N-pyrolyl)pyridine-2-carboxylic acid], the “Post-emergent % control ECHCG” value in data set [5] (rate 250 ppm) is reported as 70%. Further, in data set [6] (rate 250 ppm), the “Post-emergent % control XANST” value is given as 80%. In addition, the “Post-emergent % control CHEAL” value in [7] (rate 250 ppm) is listed as 100%. Besides, the “Post-emergent % control CYPES” value in [8] (rate 250 ppm) is on record as 30%. Moreover, in data set [1] (rate 560 ppm), the “Pre-emergent % control DIGSA” value amounted to 95%. The “Pre-emergent % control SETFA” value in [2] (rate 560 ppm) was found to be 100%. For the same compound, the “Pre-emergent % control CHEAL” value in data set [3] (setting [13]) is on record as 100%. Further, in data set [4] (rate 560 ppm), the “Pre-emergent % control AMARE” value is 100%.
As for `Nc1cc(-c2ccc(C(F)(F)F)cc2Cl)nc(C(=O)O)c1Cl` [Compound 184, 4-Amino-3-chloro-6-(2-chloro-4-(trifluoromethyl)phenyl)pyridine-2-carboxylic acid], the pest or weed control at 125 ppm in [5] (rate 125 ppm) was 70%; in [6] (rate 125 ppm), 100%; in data set [7] (rate 125 ppm), 70%; in [8] (setting [14]), 40%. In addition, the pest or weed control at 140 ppm in [1] (setting [15]) was 90%; in data set [2] (setting [16]), 70%; in data set [3] (Chenopodium album, pre-emergence, 504 h, rate 140 ppm, read-out: Pre-emergent % control CHEAL), 90%; in data set [4] (setting [17]), 85%.
As to `Nc1c(F)c(C(=O)O)nc(-c2ccc3c(c2)OCO3)c1F` [Compound 207, 4-Amino-3,5-difluoro-6-(3,4-methylenedioxyphenyl)pyridine-2-carboxylic acid], the melting point fell in the range of 174 to 175 °C. The pest or weed control at 125 ppm in data set [5] (rate 125 ppm) came to 70%. For the same compound, in data set [6] (rate 125 ppm), the pest or weed control at 125 ppm is 90%. The pest or weed control at 125 ppm in [7] (rate 125 ppm) was determined as 70%. Further, in [8] (setting [14]), the pest or weed control at 125 ppm is 40%. For the same compound, the pest or weed control at 140 ppm in data set [1] (setting [15]) came out at 95%. For the same compound, the pest or weed control at 140 ppm in data set [2] (setting [16]) stood at 50%. Besides, the pest or weed control at 140 ppm in data set [4] (setting [17]) stood at 100%.
